Results on 20 compounds are retold here after ChEMBL document CHEMBL1146617, “2-Aryl-3,6-dialkyl-5-dialkylaminopyrimidin-4-ones as novel crf-1 receptor antagonists” (Bioorg Med Chem Lett, 2003).

A short description of the data set: in vitro. To be noted: human, microsomes.
Compound `CCCN(CCC)c1c(C)nc(-c2c(OC)cccc2OC(F)F)n(CC)c1=O` gave a half-life of 1.8 min.
With `CCCN(CCC)c1c(C)nc(-c2c(C)cc(C)cc2OC)n(C(C)C)c1=O`, the half-life stood at 2.1 min.
For the compound `CCCN(CCC)c1c(C)nc(-c2c(C)cc(C)cc2C)n(CCN2CCCC2)c1=O`, the half-life was found to be 4.2 min.
Turning to `CCCN(CCC)c1c(C)nc(-c2c(C)cc(C)cc2OC)nc1O`, the half-life amounted to 15.5 min.
On to `CCCN(CCC)c1c(C)nc(-c2c(OC)cccc2OC)nc1O`, for which the half-life stood at 13.3 min.
In turn, `CCCN(CCC)c1c(C)nc(-c2c(C)cc(C)cc2OC)n(CC(F)(F)F)c1=O` returned a half-life of 3.4 min.
Compound `CCCN(CCC)c1c(C)nc(-c2c(OC)cccc2OC(F)F)nc1O` returned a half-life of 21.6 min.
For the compound `CCCN(CCC)c1c(C)nc(-c2ccc(OC)cc2OC)n(CCC)c1=O`, the half-life was found to be 2.3 min.
Compound `CCCN(CCC)c1c(CC)nc(-c2c(C)cc(C)cc2OC)n(CC)c1=O` showed a half-life of 2.3 min.
`CCCN(CCC)c1c(C)nc(-c2ccc(OC)cc2OC)n(CC2CC2)c1=O` gave a half-life of 1.5 min.
The compound `CCCN(CCC)c1c(C)nc(-c2ccc(OC)cc2OC)nc1O` had a half-life of 9.4 min.
`CCCN(CCC)c1c(C)nc(-c2c(C)cc(C)cc2C)n(CC)c1=O` showed a half-life of 3.6 min.
For the compound `CCCN(CCC)c1c(C)nc(-c2c(C)cc(C)cc2C)nc1O`, the half-life worked out at 7.5 min.
Compound `CCCN(CCC)c1c(C)nc(-c2ccc(Cl)cc2Cl)n(CC)c1=O` gave a half-life of 1.9 min.
As to `CCCN(CCC)c1c(CC)nc(-c2c(C)cc(C)cc2OC)[nH]c1=O`, the half-life was 8.1 min.
The figure for `CCCN(CCC)c1c(C)nc(-c2ccc(OC)cc2OC)n(CCOC)c1=O` is 1.3 min.
In turn, `CCCN(CCC)c1c(C)nc(-c2c(C)cc(C)cc2C)n(C)c1=O` returned a half-life of 4.6 min.
Regarding `CCCN(CCC)c1c(C)nc(-c2c(C)cc(C)cc2OC)n(CCC)c1=O`, the half-life worked out at 3 min.
Take `CCCN(CCC)c1c(C)nc(-c2c(C)cc(C)cc2OC)n(C)c1=O`: the half-life stood at 2.5 min.
In turn, `CCCN(CCC)c1c(C)nc(-c2c(C)cc(C)cc2OC)n(CCF)c1=O` showed a half-life of 3 min.

For orientation: half-life means the time needed for the level to fall by half in the phase considered.
